These are literature values, as cited in patent US20170002355A1, “cGAP-PNA MULTIVALENT PEPTIDE NUCLEIC ACID LIGAND DISPLAY” (THE USA, AS REPRESENTED BY THE SECRETARY, DEPART- MENT OF …, priority 2014, published 2017).

For data set [1], the target named is T1, hA3AR (Homo sapiens, UniProt P0DMS8).
T1 construct: expressed in transfected cells
T1 sequence (P0DMS8 1-318): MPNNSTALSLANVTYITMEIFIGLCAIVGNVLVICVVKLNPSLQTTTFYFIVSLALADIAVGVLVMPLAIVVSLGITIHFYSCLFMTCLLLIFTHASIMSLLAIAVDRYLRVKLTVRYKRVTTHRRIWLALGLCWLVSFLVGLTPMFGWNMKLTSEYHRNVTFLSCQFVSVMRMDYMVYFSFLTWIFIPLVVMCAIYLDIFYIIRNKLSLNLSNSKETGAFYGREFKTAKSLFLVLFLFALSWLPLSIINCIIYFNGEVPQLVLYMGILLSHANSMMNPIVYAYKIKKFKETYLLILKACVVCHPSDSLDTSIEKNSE
The settings on record: published literature values of XAC (Kecskes et al. 2011).

The target in data set [2] is T2, hA1AR (Homo sapiens, UniProt P30542).
T2 construct: expressed in transfected cells
T2 sequence (P30542 1-326): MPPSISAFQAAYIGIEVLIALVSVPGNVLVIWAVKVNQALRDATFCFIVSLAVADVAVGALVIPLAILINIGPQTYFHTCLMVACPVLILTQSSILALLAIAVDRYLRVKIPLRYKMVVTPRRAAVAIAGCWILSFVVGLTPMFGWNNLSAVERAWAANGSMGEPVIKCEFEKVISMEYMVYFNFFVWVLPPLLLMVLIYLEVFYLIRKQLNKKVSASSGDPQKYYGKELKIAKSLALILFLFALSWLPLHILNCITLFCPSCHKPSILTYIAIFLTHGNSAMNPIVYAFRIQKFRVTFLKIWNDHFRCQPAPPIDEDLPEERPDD
As to conditions: published literature values of XAC (Kecskes et al. 2011).

Regarding `CCCn1c(=O)c2[nH]c(-c3ccc(OCC(=O)NCCN)cc3)nc2n(CCC)c1=O` [XAC, N-(2-aminoethyl)-2-[4-(2,3,6,7-tetrahydro-2,6-dioxo-1,3-dipropyl-1H-purin-8-yl)phenoxy]-acetamide], the “A3:A2A selectivity, literature” value in data set [1] is recorded as 2.4. Besides, in data set [2], the “A1:A2A selectivity, literature” value is on record as 1.4.
